Data reported in ChEMBL document CHEMBL3885881, “DrugMatrix”.

Organism: Rattus norvegicus
Experiment: DrugMatrix - Regimen: Daily Repeat
Format: toxicity, organism-based, Sprague-Dawley
Design: regimen Daily Repeat, gender Male, age 6-8 weeks
Settings: in vivo, po, route oral GAVAGE, vehicle 100 % SALINE; for ABSOLUTE BASOPHIL / ABSOLUTE EOSINOPHIL / ABSOLUTE LYMPHOCYTE / ABSOLUTE MONOCYTE / ABSOLUTE SEGMENTED NEUTROPHIL / BASOPHIL / EOSINOPHIL / ERYTHROCYTE COUNT / HEMATOCRIT / HEMOGLOBIN / LEUKOCYTE COUNT / MEAN CORPUSCULAR HEMOGLOBIN / MEAN CORPUSCULAR HEMOGLOBIN CONCENTRATION / MEAN CORPUSCULAR VOLUME / MONOCYTE / NEUTROPHIL / NUCLEATED RED BLOOD CELLS / PLATELET COUNT: tissue Blood; for ALANINE AMINOTRANSFERASE / ALBUMIN / ALKALINE PHOSPHATASE / ASPARTATE AMINOTRANSFERASE / BLOOD UREA NITROGEN / CARBON DIOXIDE / CHLORIDE / CHOLESTEROL / CREATINE PHOSPHOKINASE / CREATININE / GLUCOSE / LACTATE DEHYDROGENASE / LIPASE / PHOSPHORUS / POTASSIUM / SODIUM / TOTAL BILIRUBIN / TOTAL PROTEIN / URIC ACID: tissue Plasma
[1] = 40 mg/kg, 120 h, dose level Low, time 5 day
[2] = 195 mg/kg, 72 h, dose level High, time 3 day
[3] = 195 mg/kg, 120 h, dose level High, time 5 day

Question: With `Oc1ccccc1O` [CATECHOL] as the molecule, how does the “ABSOLUTE BASOPHIL” value [1] read?
Answer: 0 CELLS/uL

Question: What about the “ABSOLUTE EOSINOPHIL” value [1] of the same molecule?
Answer: 30.67 CELLS/uL

Question: And the “ABSOLUTE LYMPHOCYTE” value [1]?
Answer: 8416.67 CELLS/uL

Question: What about the “ABSOLUTE MONOCYTE” value [1] of the same molecule?
Answer: 0 CELLS/uL

Question: What about the “ABSOLUTE SEGMENTED NEUTROPHIL” value [1] of the same molecule?
Answer: 952.67 CELLS/uL

Question: What about the BASOPHIL [1] of the same molecule?
Answer: 0%

Question: And the EOSINOPHIL [1]?
Answer: 0.33%

Question: And the “ERYTHROCYTE COUNT” value [1]?
Answer: 5.53 x10E6/uL

Question: And the HEMATOCRIT [1]?
Answer: 33.83%

Question: And the HEMOGLOBIN [1]?
Answer: 13.17 G/DL

Question: And the “LEUKOCYTE COUNT” value [1]?
Answer: 9.4 x10E3/uL

Question: What about the “MEAN CORPUSCULAR HEMOGLOBIN” value [1] of the same molecule?
Answer: 23.8 pg

Question: What about the “MEAN CORPUSCULAR HEMOGLOBIN CONCENTRATION” value [1] of the same molecule?
Answer: 38.93 G/DL

Question: And the “MEAN CORPUSCULAR VOLUME” value [1]?
Answer: 61.13 fL

Question: And the MONOCYTE [1]?
Answer: 0%

Question: And the NEUTROPHIL [1]?
Answer: 10.67%

Question: And the “NUCLEATED RED BLOOD CELLS” value [1]?
Answer: 0 /100WBC

Question: And the “PLATELET COUNT” value [1]?
Answer: 1168.67 x10E3/uL

Question: And the “ALANINE AMINOTRANSFERASE” value [1]?
Answer: 60.67 u/L

Question: And the ALBUMIN [1]?
Answer: 4.17 G/DL

Question: And the “ALKALINE PHOSPHATASE” value [1]?
Answer: 318.33 u/L

Question: And the “ASPARTATE AMINOTRANSFERASE” value [1]?
Answer: 89.67 u/L

Question: What about the “BLOOD UREA NITROGEN” value [1] of the same molecule?
Answer: 16 mg/dL

Question: And the “CARBON DIOXIDE” value [1]?
Answer: 26 mmol/L

Question: What about the CHLORIDE [1] of the same molecule?
Answer: 104.67 MEQ/L

Question: And the CHOLESTEROL [1]?
Answer: 77.67 mg/dL

Question: What about the “CREATINE PHOSPHOKINASE” value [1] of the same molecule?
Answer: 225.33 u/L

Question: And the CREATININE [1]?
Answer: 0.14 mg/dL

Question: And the GLUCOSE [1]?
Answer: 162 mg/dL

Question: And the “LACTATE DEHYDROGENASE” value [1]?
Answer: 134.67 u/L

Question: What about the LIPASE [1] of the same molecule?
Answer: 9 u/L

Question: What about the PHOSPHORUS [1] of the same molecule?
Answer: 10.23 mg/dL

Question: And the POTASSIUM [1]?
Answer: 5.58 MEQ/L

Question: What about the SODIUM [1] of the same molecule?
Answer: 152 MEQ/L

Question: And the “TOTAL BILIRUBIN” value [1]?
Answer: 0.2 mg/dL

Question: And the “TOTAL PROTEIN” value [1]?
Answer: 6.03 G/DL

Question: What about the “URIC ACID” value [1] of the same molecule?
Answer: 0.77 mg/dL

Question: And the “ABSOLUTE BASOPHIL” value [2]?
Answer: 0 CELLS/uL

Question: And the “ABSOLUTE EOSINOPHIL” value [2]?
Answer: 0 CELLS/uL

Question: And the “ABSOLUTE LYMPHOCYTE” value [2]?
Answer: 16294.67 CELLS/uL

Question: And the “ABSOLUTE MONOCYTE” value [2]?
Answer: 122.33 CELLS/uL

Question: And the “ABSOLUTE SEGMENTED NEUTROPHIL” value [2]?
Answer: 1316.33 CELLS/uL

Question: What about the BASOPHIL [2] of the same molecule?
Answer: 0%

Question: And the EOSINOPHIL [2]?
Answer: 0%

Question: What about the “ERYTHROCYTE COUNT” value [2] of the same molecule?
Answer: 5.5 x10E6/uL

Question: And the HEMATOCRIT [2]?
Answer: 33.6%

Question: And the HEMOGLOBIN [2]?
Answer: 13.2 G/DL

Question: What about the “LEUKOCYTE COUNT” value [2] of the same molecule?
Answer: 17.73 x10E3/uL

Question: What about the “MEAN CORPUSCULAR HEMOGLOBIN” value [2] of the same molecule?
Answer: 24 pg

Question: What about the “MEAN CORPUSCULAR HEMOGLOBIN CONCENTRATION” value [2] of the same molecule?
Answer: 39.27 G/DL

Question: And the “MEAN CORPUSCULAR VOLUME” value [2]?
Answer: 61.13 fL

Question: What about the MONOCYTE [2] of the same molecule?
Answer: 0.67%

Question: What about the NEUTROPHIL [2] of the same molecule?
Answer: 7.33%

Question: And the “NUCLEATED RED BLOOD CELLS” value [2]?
Answer: 0 /100WBC

Question: What about the “PLATELET COUNT” value [2] of the same molecule?
Answer: 1440 x10E3/uL

Question: And the “ALANINE AMINOTRANSFERASE” value [2]?
Answer: 50.67 u/L

Question: And the ALBUMIN [2]?
Answer: 4.1 G/DL

Question: What about the “ALKALINE PHOSPHATASE” value [2] of the same molecule?
Answer: 278.67 u/L

Question: What about the “ASPARTATE AMINOTRANSFERASE” value [2] of the same molecule?
Answer: 78 u/L

Question: And the “BLOOD UREA NITROGEN” value [2]?
Answer: 12.33 mg/dL

Question: And the “CARBON DIOXIDE” value [2]?
Answer: 25 mmol/L

Question: And the CHLORIDE [2]?
Answer: 100.33 MEQ/L

Question: What about the CHOLESTEROL [2] of the same molecule?
Answer: 73 mg/dL

Question: And the “CREATINE PHOSPHOKINASE” value [2]?
Answer: 460.33 u/L

Question: And the CREATININE [2]?
Answer: 0.2 mg/dL

Question: What about the GLUCOSE [2] of the same molecule?
Answer: 161.33 mg/dL

Question: What about the “LACTATE DEHYDROGENASE” value [2] of the same molecule?
Answer: 133.67 u/L

Question: And the LIPASE [2]?
Answer: 10.67 u/L

Question: What about the PHOSPHORUS [2] of the same molecule?
Answer: 11.7 mg/dL

Question: And the POTASSIUM [2]?
Answer: 6.15 MEQ/L

Question: What about the SODIUM [2] of the same molecule?
Answer: 140.17 MEQ/L

Question: And the “TOTAL BILIRUBIN” value [2]?
Answer: 0.17 mg/dL

Question: What about the “TOTAL PROTEIN” value [2] of the same molecule?
Answer: 5.9 G/DL

Question: What about the “URIC ACID” value [2] of the same molecule?
Answer: 1.73 mg/dL

Question: What about the “ABSOLUTE BASOPHIL” value [3] of the same molecule?
Answer: 0 CELLS/uL

Question: And the “ABSOLUTE EOSINOPHIL” value [3]?
Answer: 0 CELLS/uL

Question: What about the “ABSOLUTE LYMPHOCYTE” value [3] of the same molecule?
Answer: 12717.67 CELLS/uL

Question: And the “ABSOLUTE MONOCYTE” value [3]?
Answer: 34 CELLS/uL

Question: And the “ABSOLUTE SEGMENTED NEUTROPHIL” value [3]?
Answer: 981.67 CELLS/uL

Question: And the BASOPHIL [3]?
Answer: 0%

Question: What about the EOSINOPHIL [3] of the same molecule?
Answer: 0%

Question: And the “ERYTHROCYTE COUNT” value [3]?
Answer: 5.35 x10E6/uL

Question: And the HEMATOCRIT [3]?
Answer: 33.67%

Question: What about the HEMOGLOBIN [3] of the same molecule?
Answer: 13.33 G/DL

Question: And the “LEUKOCYTE COUNT” value [3]?
Answer: 13.73 x10E3/uL

Question: What about the “MEAN CORPUSCULAR HEMOGLOBIN” value [3] of the same molecule?
Answer: 24.93 pg

Question: And the “MEAN CORPUSCULAR HEMOGLOBIN CONCENTRATION” value [3]?
Answer: 39.6 G/DL

Question: What about the “MEAN CORPUSCULAR VOLUME” value [3] of the same molecule?
Answer: 62.9 fL

Question: What about the MONOCYTE [3] of the same molecule?
Answer: 0.33%

Question: And the NEUTROPHIL [3]?
Answer: 7%

Question: What about the “NUCLEATED RED BLOOD CELLS” value [3] of the same molecule?
Answer: 0 /100WBC

Question: What about the “PLATELET COUNT” value [3] of the same molecule?
Answer: 1267.33 x10E3/uL

Question: What about the “ALANINE AMINOTRANSFERASE” value [3] of the same molecule?
Answer: 63.67 u/L

Question: And the ALBUMIN [3]?
Answer: 4.47 G/DL

Question: What about the “ALKALINE PHOSPHATASE” value [3] of the same molecule?
Answer: 326 u/L

Question: What about the “ASPARTATE AMINOTRANSFERASE” value [3] of the same molecule?
Answer: 93 u/L

Question: And the “BLOOD UREA NITROGEN” value [3]?
Answer: 15.33 mg/dL

Question: What about the “CARBON DIOXIDE” value [3] of the same molecule?
Answer: 27 mmol/L

Question: And the CHLORIDE [3]?
Answer: 102.67 MEQ/L

Question: And the CHOLESTEROL [3]?
Answer: 74.33 mg/dL

Question: And the “CREATINE PHOSPHOKINASE” value [3]?
Answer: 321 u/L

Question: And the CREATININE [3]?
Answer: 0.14 mg/dL

Question: What about the GLUCOSE [3] of the same molecule?
Answer: 145.33 mg/dL

Question: And the “LACTATE DEHYDROGENASE” value [3]?
Answer: 130.67 u/L

Question: And the LIPASE [3]?
Answer: 10 u/L

Question: And the PHOSPHORUS [3]?
Answer: 10.1 mg/dL

Question: What about the POTASSIUM [3] of the same molecule?
Answer: 6.03 MEQ/L

Question: And the SODIUM [3]?
Answer: 151 MEQ/L

Question: And the “TOTAL BILIRUBIN” value [3]?
Answer: 0.2 mg/dL

Question: What about the “TOTAL PROTEIN” value [3] of the same molecule?
Answer: 6.43 G/DL

Question: And the “URIC ACID” value [3]?
Answer: 0.73 mg/dL
